Source: US12060349B2, “Glucosylceramide synthase inhibitors” (Genzyme Corporation, priority 2012, dated 2024)
Like-named read-outs stand apart in the source and are kept apart here.

Experiments:
[1] = tested on: GM3 expression on the cell surface, C32 human melanoma cells; assay: cell based phenotypic assay, cell surface GM3 by antibody mediated immunofluorescence, C32 (GM3 C32 IC50); conditions: 50% inhibition of GM3 expression on the cell surface
Procedure, shortened: (§1)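 B16 mouse and C32 human melanoma cells; cell-surface GM3 measured by antibody-mediated immunofluorescence, giving IC50.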

[2] = tested on: GM3 expression on the cell surface, B16 mouse melanoma cells; assay: cell based phenotypic assay, cell surface GM3 by antibody mediated immunofluorescence, B16 (GM3 B16 IC50); conditions: 50% inhibition of GM3 expression on the cell surface
Procedure, shortened: as §1

[3] = tested on: C32 human melanoma cells; assay: cell viability in the C32 cell-based assay (Viability, C32 IC50); conditions: concentration causing 50% cell death, values greater than 10 represent a lack of cell death
Procedure, shortened: (§2)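 Two melanoma lines, mouse B16 and human C32, were treated and surface GM3 quantified by antibody immunofluorescence for IC50. A parallel viability readout gives the concentration killing 50% of cells, with values over 10 indicating no cell death.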

[4] = molecular target: T1, glucosylceramide synthase (Homo sapiens, UniProt Q16739); assay: microsomal assay measuring conversion of ceramide to glucosylceramide by HPLC (GCS IC50); format: biochemical; conditions: concentration causing 50% inhibition of glucosylceramide synthase activity
T1 construct: Microsomes were isolated from A375 human melanoma cells; endogenous in cells; host or cells: A375 human melanoma cells (microsomal fraction, 100,000 g pellet)
T1 sequence (Q16739 1-394): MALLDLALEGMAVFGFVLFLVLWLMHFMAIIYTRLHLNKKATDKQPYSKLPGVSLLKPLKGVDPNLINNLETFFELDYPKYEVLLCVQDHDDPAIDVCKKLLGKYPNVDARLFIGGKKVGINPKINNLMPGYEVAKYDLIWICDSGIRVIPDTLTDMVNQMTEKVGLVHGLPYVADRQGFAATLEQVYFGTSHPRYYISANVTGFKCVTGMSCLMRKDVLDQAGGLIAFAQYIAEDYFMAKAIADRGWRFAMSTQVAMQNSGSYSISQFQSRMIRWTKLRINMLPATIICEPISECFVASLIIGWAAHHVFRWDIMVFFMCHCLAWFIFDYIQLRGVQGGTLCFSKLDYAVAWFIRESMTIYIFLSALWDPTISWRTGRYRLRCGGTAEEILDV
Procedure, shortened: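 Microsomal preparation assayed for glucosylceramide synthase by direct HPLC measurement of ceramide conversion to glucosylceramide. GCS IC50 is the compound concentration giving 50% inhibition of enzyme activity.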

[5] = tested on: B16 mouse melanoma cells; assay: cell viability in the B16 cell-based assay (Viability, B16 IC50)
Procedure, shortened: as §2

[6] = C32 human melanoma cells, read-out: GM3 C32 IC50
[7] = B16 mouse melanoma cells, read-out: GM3 B16 IC50
[8] = C32 cells, read-out: Viability, C32 IC50
[9] = B16 cells, concentration causing 50% cell death, values greater than 10 represent a lack of cell death, read-out: Viability, B16 IC50
[10] = Homo sapiens, C32 human melanoma cells, read-out: GM3 C32 IC50
[11] = Mus musculus, B16 mouse melanoma cells, read-out: GM3 B16 IC50
[12] = Homo sapiens, C32, C32 cells, read-out: Viability, C32 IC50
[13] = Mus musculus, B16, B16 cells, concentration causing 50% cell death, values greater than 10 represent a lack of cell death, read-out: Viability, B16 IC50
[14] = Homo sapiens, read-out: GM3 C32 IC50, C32 human melanoma cells
[15] = Mus musculus, read-out: GM3 B16 IC50, B16 mouse melanoma cells
[16] = Homo sapiens, C32, read-out: Viability, C32 IC50, C32 cells
[17] = Mus musculus, B16, read-out: Viability, B16 IC50

| Compound | IC50 [4] [nM] | IC50 [1, 10] [nM] | IC50 [2, 11] [nM] | IC50 [1, 6] [nM] | IC50 [2, 7] [nM] | IC50 [3, 8] [nM] | IC50 [5, 9] [nM] | IC50 [3, 12] [nM] | IC50 [5, 13] [nM] | IC50 [1, 14] [nM] | IC50 [2, 15] [nM] | IC50 [3, 16] [nM] | IC50 [5, 17] [nM] |
| --- | --- | --- | --- | --- | --- | --- | --- | --- | --- | --- | --- | --- | --- |
| N-(2-(4-(4-(Methylcarbamoyl)phenoxy)phenyl)propan-2-yl)-1,4-diazabicyclo[3.2.2]nonane-4-carboxamide [Example 305] | 399 |  |  | 19.5 | 299 | 1000 | ≥ 10000 |  |  |  |  |  |  |
| CC(C)(NC(=O)NC1(C)CN2CCC1CC2)c1ccc(-c2ccc(S(=O)(=O)CC3CC3)cc2)cc1 (centres unmarked) [Example 240, 1-(2-(4′-((Cyclopropylmethyl)sulfonyl)-[1,1′-biphenyl]-4-yl)propan-2-yl)-3-(3-methylquinuclidin-3-yl)urea] | 13.3 | 5.97 | 86.5 |  |  |  |  | 1000 | ≥ 10000 |  |  |  |  |
| CC(C)(NC(=O)OC1CN2CCC1CC2)c1ccc(-c2ccc(OCCC3COC3)cc2)cc1 (centres unmarked) [Example 194, Quinuclidin-3-yl (2-(4′-(2-(oxetan-3-yl)ethoxy)-[1,1′-biphenyl]-4-yl)propan-2-yl)carbamate] | 10.5 |  |  |  |  |  |  |  |  | 4.06 | 115 | 1000 | 9930 |
| O=C(OC1CCN2CCC1CC2)N1CCN(c2cccc(-c3ccccc3)c2)CC1 (centres unmarked) [Example 19, 1-Azabicyclo[3.2.2]nonan-4-yl 4-([1,1′-biphenyl]-3-yl)piperazine-1-carboxylate] | 2670 | 456 | 1480 |  |  |  |  | 9090 | 7090 |  |  |  |  |
| CC(C)(NC(=O)OC1CN2CCC1CC2)c1ccc(-c2ccc(OCCCC#N)cc2)cc1 (centres unmarked) [Example 189, Quinuclidin-3-yl (2-(4′-(3-cyanopropoxy)-[1,1′-biphenyl]-4-yl)propan-2-yl)carbamate] | 9.57 |  |  |  |  |  |  |  |  | 3.22 | 86.5 | 8470 | ≥ 10000 |
| CC(C)(NC(=O)NC1(C)CN2CCC1CC2)c1ccc(-c2ccc(OCCn3cccn3)cc2)cc1 (centres unmarked) [Example 180, 1-(2-(4′-(2-(1H-Pyrazol-1-yl)ethoxy)-[1,1′-biphenyl]-4-yl)propan-2-yl)-3-(3-methylquinuclidin-3-yl)urea] | 5.3 | 1.81 | 46.3 |  |  |  |  | 3160 | 3160 |  |  |  |  |
| CCC1(NC(=O)NC(C)(C)c2ccc(-c3ccc(S(=O)(=O)CCCOC)cc3)cc2)CN2CCC1CC2 (centres unmarked) [Example 243, 1-(3-Ethylquinuclidin-3-yl)-3-(2-(4′-((3-methoxypropyl)sulfonyl)-[1,1′-biphenyl]-4-yl)propan-2-yl)urea] | 32.8 | 7.49 | 57.3 |  |  |  |  | 3160 | ≥ 10000 |  |  |  |  |
| CCC1(NC(=O)NC2(c3ccc(-c4ccc(COCCOC)cc4)cc3)CC2)CN2CCC1CC2 (single isomer, unassigned) [Example 209, 1-(3-Ethylquinuclidin-3-yl)-3-(1-(4′-((2-methoxyethoxy)methyl)-[1,1′-biphenyl]-4-yl)cyclopropyl)urea] | 17.4 |  |  | 1.05 | 39.2 | 1780 | ≥ 10000 |  |  |  |  |  |  |
| COCCOCc1ccc(-c2ccc(C3(NC(=O)NC4(C)CN5CCC4CC5)CC3)cc2)cc1 (centres unmarked) [Example 205, 1-(1-(4′-((2-Methoxyethoxy)methyl)-[1,1′-biphenyl]-4-yl)cyclopropyl)-3-(3-methylquinuclidin-3-yl)urea] | 51.5 | 5.31 | 156 |  |  |  |  | 1780 | ≥ 10000 |  |  |  |  |

Second part, led by results:

| IC50 [4] [nM] | IC50 [1, 10] [nM] | IC50 [2, 11] [nM] | Compound | IC50 [1, 6] [nM] | IC50 [2, 7] [nM] | IC50 [3, 8] [nM] | IC50 [5, 9] [nM] | IC50 [3, 12] [nM] | IC50 [5, 13] [nM] | IC50 [1, 14] [nM] | IC50 [2, 15] [nM] | IC50 [3, 16] [nM] | IC50 [5, 17] [nM] |
| --- | --- | --- | --- | --- | --- | --- | --- | --- | --- | --- | --- | --- | --- |
| 13.9 | 0.76 | 23 | COCCOCc1ccc(-c2ccc(C(C)(C)NC(=O)NC3(C)CCN4CCC3CC4)cc2)cc1 (centres unmarked) [Example 201, 1-(2-(4′-((2-Methoxyethoxy)methyl)-[1,1′-biphenyl]-4-yl)propan-2-yl)-3-(4-methyl-1-azabicyclo[3.2.2]nonan-4-yl)urea] |  |  |  |  | 316 | ≥ 10000 |  |  |  |  |
| 7.69 | 0.861 | 100 | CCC1CN(C(=O)NC2(C)CCN3CCC2CC3)CCN1c1nccc(-c2ccccc2)n1 (centres unmarked) [Example 142, 3-Ethyl-N-(4-methyl-1-azabicyclo[3.2.2]nonan-4-yl)-4-(4-phenylpyrimidin-2-yl)piperazine-1-carboxamide] |  |  |  |  | 9210 | 5340 |  |  |  |  |
| 5.68 | 0.726 | 5.51 | CC(C)(NC(=O)NC1(C)CCN2CCC1CC2)c1ccc(-c2ccc(N3CCOCC3)cc2)cc1 (centres unmarked) [Example 233, 1-(4-Methyl-1-azabicyclo[3.2.2]nonan-4-yl)-3-(2-(4′-morpholino-[1,1′-biphenyl]-4-yl)propan-2-yl)urea] |  |  |  |  | 1000 | 1000 |  |  |  |  |
| 23000 | 518 | 2160 | CC(C)(NC(=O)N1CCN2CCC1CC2)c1ccc(-c2ccc(C(=O)N3CCOCC3)cc2)cc1 [Example 269, N-(2-(4′-(Morpholine-4-carbonyl)biphenyl-4-yl)propan-2-yl)-1,4-diazabicyclo[3.2.2]nonane-4-carboxamide] |  |  |  |  | ≥ 10000 | ≥ 10000 |  |  |  |  |
| 166 | 31.5 | 648 | CC(C)(NC(=O)NC1(C)CCN2CCC1CC2)c1ccc(-c2ccc(C(=O)N3CCOCC3)cc2)cc1 (centres unmarked) [Example 268, 1-(4-Methyl-1-azabicyclo[3.2.2]nonan-4-yl)-3-(2-(4′-(morpholine-4-carbonyl)biphenyl-4-yl)propan-2-yl)urea] |  |  |  |  | 1000 | ≥ 10000 |  |  |  |  |
| 295 | 29.1 | 656 | COCCCOc1cnc(-c2cccc(C(C)(C)NC(=O)N3CCN4CCC3CC4)c2)cn1 [Example 317, N-(2-(3-(5-(3-Methoxypropoxy)pyrazin-2-yl)phenyl)propan-2-yl)-1,4-diazabicyclo[3.2.2]nonane-4-carboxamide] |  |  |  |  | 1000 | ≥ 10000 |  |  |  |  |
| 8.01 | 0.507 | 76.3 | CC1CN(C(=O)NC2(C)CCN3CCC2CC3)CCN1c1nccc(-c2ccc(F)cc2)n1 (centres unmarked) [Example 145, 4-(4-(4-Fluorophenyl)pyrimidin-2-yl)-3-methyl-N-(4-methyl-1-azabicyclo[3.2.2]nonan-4-yl)piperazine-1-carboxamide] |  |  |  |  | 316 | 6980 |  |  |  |  |
| 437 | 31.6 | 793 | CN(C)C(=O)c1ccc(Oc2ccc(C(C)(C)NC(=O)OC3CCN4CCC3CC4)cc2)cc1 (centres unmarked) [Example 286, 1-Azabicyclo[3.2.2]nonan-4-yl 2-(4-(4-(dimethylcarbamoyl)phenoxy)phenyl)propan-2-ylcarbamate] |  |  |  |  | ≥ 10000 | ≥ 10000 |  |  |  |  |
| 123 | 12.1 | 145 | COCCOc1ccc(-c2ccc(C(C)(C)NC(=O)OC3CCN4CCC3CC4)cc2)nc1 (centres unmarked) [Example 310, 1-Azabicyclo[3.2.2]nonan-4-yl 2-(4-(5-(2-methoxyethoxy)pyridin-2-yl)phenyl)propan-2-ylcarbamate] |  |  |  |  | 3160 | ≥ 10000 |  |  |  |  |
| 2.26 | 0.0953 | 13.4 | CC1(NC(=O)C2(F)CCN(c3nccc(-c4ccc(OCCF)cc4)n3)CC2)CCN2CCC1CC2 (centres unmarked) [Example 90, 4-Fluoro-1-(4-(4-(2-fluoroethoxy)phenyl)pyrimidin-2-yl)-N-(4-methyl-1-azabicyclo[3.2.2]nonan-4-yl)piperidine-4-carboxamide] |  |  |  |  | 215 | 3060 |  |  |  |  |
